Values quoted from earlier work as cited in US7625920B2, “Fluorinated 4-azasteroid derivatives as androgen receptor modulators” (priority 2003, dated 2009).

Tests used:
[1] = after 7 years of treatment
[2] = median of 22 months of treatment

Molecule: NCCCC(O)(P(=O)([O-])O)P(=O)(O)O.O.O.O.[Na+] [alendronate, (4-amino-1-hydroxybutylidene)-bis-phosphonate monosodium trihydrate]
- increase in spinal BMD [1]: 11%

Molecule: hPTH(1-34): human parathyroid hormone 1-34 fragment (SVSEIQLMHNLGKHLNSMERVEWLRKKLQDVHNF; Parathyroid hormone; UniProt P01270 32-65, looked up, fragment)
- reduction in nonvertebral fractures [2]: 54%
- reduction in spine fractures [2]: ≥ 65%
